Results as given in patent publication US20190062362A1, “METHOD FOR OBTAINING SURFACTANT COMPOSITIONS MADE FROM ALKYL-L-GULURONAMIDES” (ÉCOLE NATIONALE SUPÉRIEURE DE CHIMIE, priority 2015, published 2019).

Tests used:
Experiment in all cases: Protocol A: agar deposit test, clarification zone
Format in all cases: cell-based
Enterococcus faecium = settings: E. faecium; antibiotic disk
Procedure: (§1) The culture medium used was a mixture of 21 g/L of Muller-Hinton broth and 10 g/L of agar in water. This mixture was stirred and then left to boil. Next, a step of autoclaving of this mixture, for 30 minutes, was desired in this embodiment so as to sterilize it before any manipulation. This culture medium was poured hot into Petri dishes and then left to cool.
(§2) 5 mg of each modified sugar were dissolved in 1 mL of DMSO. Twofold serial dilution with DMSO was then performed using the stock solution, so as to obtain concentrations of 2.5 g/L, 1.25 g/L, 0.625 g/L and 0.3125 g/L.
(§3) The bacterial strains used were Pseudomonas aeruginosa, Escherichia Coli, Enterococcus faecium and Staphylococcus aureus, and also the fungal strain Candida albicans. 10^6 bacteria were taken and then transferred into 0.9% NaCl solution. Each Petri dish, containing Muller-Hinton medium, was flooded with a different bacterial suspension.
(§4) After allowing the bacterial suspensions to dry on the agar, 10 μL of each test solution, and at various concentrations, were deposited on the surface of the agar flooded with the bacterial suspension. 10 μL of DMSO were placed in each Petri dish as a negative control.
(§5) The positive controls used were disks soaked with ampicillin for Escherichia coli and Enterococcus faecium, ceftazidime disks for Pseudomonas aeruginosa and vancomycin disks for Staphylococcus aureus.
(§6) After drying, the Petri dishes were finally incubated at 37° C. in an oven, for 24 hours. The antibacterial activity was evaluated by measuring the clarification zone in millimeters around the point of deposition of the various test solutions.

Escherichia Coli = settings: E. coli; for inhibitory activity on growth (in words): text summary of protocol A
Procedure: as §1, §2, §3, §4, §5, §6

Pseudomonas aeruginosa = settings: P. aeruginosa; for inhibitory activity on growth (in words): text summary of protocol A
Procedure: as §1, §2, §3, §4, §5, §6

Staphylococcus aureus = settings: S. aureus
Procedure: as §1, §2, §3, §4, §5, §6

Candida albicans = settings: C. albicans; text summary of protocol A
Procedure: as §1, §2, §3
After allowing the bacterial suspensions to dry on the agar, 10 μL of each test solution, and at various concentrations, were deposited on the surface of the agar flooded with the bacterial suspension. […]
as §6

CC1(C)S[C@@H]2[C@H](NC(=O)[C@H](N)c3ccccc3)C(=O)N2[C@H]1C(=O)O [Ampicillin, reference compound]
clarification zone, positive control (Enterococcus faecium): 26 mm | clarification zone, positive control (Escherichia Coli; antibiotic disk): 22 mm

N-(12 dodecyl)-n-butyl L-guluronamide
inhibitory activity on growth (in words) (Escherichia Coli): neither the N-(12 dodecyl)-n-butyl L-guluronamide nor the N-(18 octadecyl)-n-butyl L-guluronamide (whether in furanose or pyranose form) showed any inhibitory activity | inhibitory activity on growth (in words) (Pseudomonas aeruginosa): neither the N-(12 dodecyl)-n-butyl L-guluronamide nor the N-(18 octadecyl)-n-butyl L-guluronamide (whether in furanose or pyranose form) showed any inhibitory activity

CC(C)(O/N=C(\C(=O)N[C@@H]1C(=O)N2C(C(=O)[O-])=C(C[n+]3ccccc3)CS[C@H]12)c1csc(N)n1)C(=O)O [Ceftazidime, reference compound]
clarification zone, positive control (Pseudomonas aeruginosa; antibiotic disk): 28 mm

CN[C@H](CC(C)C)C(=O)N[C@H]1C(=O)N[C@@H](CC(N)=O)C(=O)N[C@H]2C(=O)N[C@H]3C(=O)N[C@H](C(=O)N[C@H](C(=O)O)c4cc(O)cc(O)c4-c4cc3ccc4O)[C@H](O)c3ccc(c(Cl)c3)Oc3cc2cc(c3O[C@@H]2O[C@H](CO)[C@@H](O)[C@H](O)[C@H]2O[C@H]2C[C@](C)(N)[C@H](O)[C@H](C)O2)Oc2ccc(cc2Cl)[C@H]1O [Vancomycin, reference compound]
clarification zone, positive control (Staphylococcus aureus; antibiotic disk): 19 mm

N-(18 octadecyl)-n-butyl L-guluronamide
inhibitory effect (in words) (Candida albicans): no inhibitory effect | inhibitory activity on growth (in words) (Escherichia Coli): neither the N-(12 dodecyl)-n-butyl L-guluronamide nor the N-(18 octadecyl)-n-butyl L-guluronamide (whether in furanose or pyranose form) showed any inhibitory activity | inhibitory activity on growth (in words) (Pseudomonas aeruginosa): neither the N-(12 dodecyl)-n-butyl L-guluronamide nor the N-(18 octadecyl)-n-butyl L-guluronamide (whether in furanose or pyranose form) showed any inhibitory activity | inhibitory effect (in words) (Staphylococcus aureus; text summary of protocol A): no inhibitory effect
